Experiments:
Assay in all cases: NCI tumor cell line screen (SRB assay)
Assay type in all cases: cell-based
Design in all cases: activity: dose or concentration left out as unconfirmed
Conditions in all cases: Homo sapiens, read-out: PERCENT GROWTH
[1] = tested on: SW-620
Experimental: (§1) The National Cancer Institute carried out the studies at the direction of the present inventor.
(§2) In the tests, the National Cancer Institute used the SRB (sulforhodamine B) assay as described by Skehan et al., (Journal of the National Cancer Institute, 82:13, Jul. 4, 1990, 1107-1112). Briefly, the assay is as follows. TCA-fixed cells were stained for 30 minutes with 0.4% (wt/vol) SRB dissolved in 1% acetic acid. At the end of the staining period, SRB was removed and cultures were quickly rinsed four times with 1% acetic acid to remove unbound dye. The acetic acid was poured directly into the culture wells from a beaker. […] Residual wash solution was removed by sharply flicking plates over a sink, which ensured the complete removal of rinsing solution. […] After being rinsed, the cultures were air dried until no standing moisture was visible. Bound dye was solubilized with 10 mM unbuffered Tris base (pH 10.5) for 5 minutes on a gyratory shaker.
(§3) Optical density (OD) was read in either a UVmax microtiter plate reader (Molecular Devices, Menlo Park, Calif.) or a Beckman DU-70 spectrophotometer. For maximum sensitivity, OD was measured at 564 nm. Because readings were linear with dye concentrations only below 1.8 OD units, however, suboptimal wavelengths were generally used, so that all samples in an experiment remained within the linear OD range. With most cell lines, wavelengths of approximately 490-530 nm worked well for this purpose.
(§4) Nine different non-small cell lung carcinoma cell lines, six different colon carcinoma cell lines, six different CNS (central nervous system) carcinoma cell lines, seven different melanoma cell lines, six different ovarian carcinoma cell lines, and eight different renal carcinoma cell lines were tested.

[2] = tested on: A498
Experimental: as §1, §2, §3, §4

[3] = tested on: OVCAR-4
Experimental: as §1, §2, §3, §4

[4] = tested on: HCC-2998
Experimental: as §1, §2, §3, §4

[5] = tested on: A549/ATCC
Experimental: as §1, §2, §3, §4

[6] = tested on: UACC-257
Experimental: as §1, §2, §3, §4

[7] = tested on: UO-31
Experimental: as §1, §2, §3, §4

[8] = tested on: HOP-92
Experimental: as §1, §2, §3, §4

[9] = tested on: OVCAR-5
Experimental: as §1, §2, §3, §4

[10] = tested on: SK-MEL-28
Experimental: as §1, §2, §3, §4

[11] = tested on: RXF 393
Experimental: as §1, §2, §3, §4

[12] = tested on: HOP-62
Experimental: as §1, §2, §3, §4

[13] = tested on: SNB-75
Experimental: as §1, §2, §3, §4

[14] = tested on: HCT-116
Experimental: as §1, §2, §3, §4

[15] = tested on: NCI-H23
Experimental: as §1, §2, §3, §4

[16] = tested on: LOX IMVI
Experimental: as §1, §2, §3, §4

[17] = tested on: OVCAR-3
Experimental: as §1, §2, §3, §4

[18] = tested on: ACHN
Experimental: as §1, §2, §3, §4

## CCCCN1C(=O)CC(=O)N(CCCC)C1=S [Compound C1, 4,6(1H, 5H)-pyrimidinedione, 1,3-dibutyldihydro-2-thioxo]
[1]; 10^-3.0 Molar
  activity: -39%
[1]; 10^-4.0 Molar
  activity at 100 µM: 85%
[1]; 10^-5.0 Molar
  activity at 10 µM: 99%
[1]; 10^-6.0 Molar
  activity at 1 µM: 100%
[1]; 10^-7.0 Molar
  activity at 0.1 µM: 110%
[2]; 10^-3.0 Molar
  activity: -81%
[2]; 10^-4.0 Molar
  activity at 100 µM: 62%
[2]; 10^-5.0 Molar
  activity at 10 µM: 96%
[2]; 10^-6.0 Molar
  activity at 1 µM: 105%
[2]; 10^-7.0 Molar
  activity at 0.1 µM: 99%
[3]; 10^-3.0 Molar
  activity: -75%
[3]; 10^-4.0 Molar
  activity at 100 µM: 66%
[3]; 10^-5.0 Molar
  activity at 10 µM: 105%
[3]; 10^-6.0 Molar
  activity at 1 µM: 104%
[3]; 10^-7.0 Molar
  activity at 0.1 µM: 101%
[4]; 10^-3.0 Molar
  activity: -82%
[4]; 10^-5.0 Molar
  activity at 10 µM: 109%
[4]; 10^-7.0 Molar
  activity at 0.1 µM: 113%
[5]; 10^-3.0 Molar
  activity: -98%
[5]; 10^-4.0 Molar
  activity at 100 µM: 67%
[5]; 10^-5.0 Molar
  activity at 10 µM: 95%
[5]; 10^-6.0 Molar
  activity at 1 µM: 95%
[5]; 10^-7.0 Molar
  activity at 0.1 µM: 98%
[6]; 10^-3.0 Molar
  activity: -77%
[6]; 10^-4.0 Molar
  activity at 100 µM: 75%
[6]; 10^-5.0 Molar
  activity at 10 µM: 96%
[6]; 10^-6.0 Molar
  activity at 1 µM: 102%
[6]; 10^-7.0 Molar
  activity at 0.1 µM: 102%
[7]; 10^-3.0 Molar
  activity: -75%
[7]; 10^-4.0 Molar
  activity at 100 µM: 63%
[7]; 10^-5.0 Molar
  activity at 10 µM: 92%
[7]; 10^-6.0 Molar
  activity at 1 µM: 99%
[7]; 10^-7.0 Molar
  activity at 0.1 µM: 92%
[8]; 10^-3.0 Molar
  activity: -70%
[8]; 10^-4.0 Molar
  activity at 100 µM: 51%
[8]; 10^-5.0 Molar
  activity at 10 µM: 104%
[8]; 10^-6.0 Molar
  activity at 1 µM: 110%
[8]; 10^-7.0 Molar
  activity at 0.1 µM: 104%
[9]; 10^-3.0 Molar
  activity: -97%
[9]; 10^-4.0 Molar
  activity at 100 µM: 97%
[9]; 10^-5.0 Molar
  activity at 10 µM: 99%
[9]; 10^-6.0 Molar
  activity at 1 µM: 98%
[9]; 10^-7.0 Molar
  activity at 0.1 µM: 102%
[10]; 10^-3.0 Molar
  activity: -75%
[10]; 10^-4.0 Molar
  activity at 100 µM: 69%
[10]; 10^-5.0 Molar
  activity at 10 µM: 108%
[10]; 10^-6.0 Molar
  activity at 1 µM: 111%
[10]; 10^-7.0 Molar
  activity at 0.1 µM: 110%
[11]; 10^-3.0 Molar
  activity: -85%
[11]; 10^-4.0 Molar
  activity at 100 µM: 43%
[11]; 10^-5.0 Molar
  activity at 10 µM: 86%
[11]; 10^-6.0 Molar
  activity at 1 µM: 93%
[11]; 10^-7.0 Molar
  activity at 0.1 µM: 93%
[12]; 10^-3.0 Molar
  activity: -100%
[12]; 10^-4.0 Molar
  activity at 100 µM: 93%
[12]; 10^-5.0 Molar
  activity at 10 µM: 96%
[12]; 10^-6.0 Molar
  activity at 1 µM: 99%
[12]; 10^-7.0 Molar
  activity at 0.1 µM: 98%
[13]; 10^-3.0 Molar
  activity: -65%
[13]; 10^-4.0 Molar
  activity at 100 µM: 83%
[13]; 10^-5.0 Molar
  activity at 10 µM: 120%
[13]; 10^-6.0 Molar
  activity at 1 µM: 113%
[13]; 10^-7.0 Molar
  activity at 0.1 µM: 106%
[14]; 10^-3.0 Molar
  activity: -100%
[14]; 10^-4.0 Molar
  activity at 100 µM: 48%
[14]; 10^-5.0 Molar
  activity at 10 µM: 118%
[14]; 10^-6.0 Molar
  activity at 1 µM: 111%
[14]; 10^-7.0 Molar
  activity at 0.1 µM: 109%
[15]; 10^-3.0 Molar
  activity: -62%
[15]; 10^-4.0 Molar
  activity at 100 µM: 63%
[15]; 10^-5.0 Molar
  activity at 10 µM: 98%
[15]; 10^-6.0 Molar
  activity at 1 µM: 103%
[15]; 10^-7.0 Molar
  activity at 0.1 µM: 97%
[16]; 10^-3.0 Molar
  activity: -100%
[16]; 10^-4.0 Molar
  activity at 100 µM: 65%
[16]; 10^-5.0 Molar
  activity at 10 µM: 102%
[16]; 10^-6.0 Molar
  activity at 1 µM: 106%
[16]; 10^-7.0 Molar
  activity at 0.1 µM: 101%
[17]; 10^-3.0 Molar
  activity: -93%
[17]; 10^-4.0 Molar
  activity at 100 µM: 89%
[17]; 10^-5.0 Molar
  activity at 10 µM: 110%
[17]; 10^-6.0 Molar
  activity at 1 µM: 114%
[17]; 10^-7.0 Molar
  activity at 0.1 µM: 110%
[18]; 10^-3.0 Molar
  activity: -3%
[18]; 10^-4.0 Molar
  activity at 100 µM: 89%
[18]; 10^-5.0 Molar
  activity at 10 µM: 107%
[18]; 10^-6.0 Molar
  activity at 1 µM: 105%
[18]; 10^-7.0 Molar
  activity at 0.1 µM: 99%
